The values below come from PMC5201116, “Bioactive Flavonoids and Catechols as Hif1 and Nrf2 Protein Stabilizers - Implications for Parkinson’s Disease” (Aging and Disease, 2016).

Molecules are shown by their SMILES. Read-outs that look alike come from different tables or passages of the source.

For series [1], the system named is HIF1 ODD-luc reporter (SH-SY5Y cell line). Briefly: HIF1 ODD-luc reporter assay. Format: cell-based. As to the method:
(§1) SH-SY5Y cell lines stably expressing HIF1 ODD-luc or Neh2-luc reporters were grown in the DMEM/F12 supplemented with GlutaMAX (Thermo Fisher Scientific) containing 10% FBS, 100 U/ml penicillin, and 100 μg/ml streptomycin and plated into 384-well white flat-bottom plates at 7,000 cell/well in 30 µl serum and incubated overnight at 37°C, 5% CO2. The next day compounds were added to a final concentration of 10 µM and the plates were incubated for 3 hours at 37°C. Reporter activation after 3 h incubation with the studied compound was compared to that for ciclopirox (HIF1 ODD-luc reporter) or TBHQ (Neh2-luc reporter), taken as 100%. Luciferase reporter activity was measured with a SteadyGlo reagent from Promega providing stable reading for 1 h.
(§2) Cells were plated at the density of 25,000 cell per well using a WellMate multichannel dispenser from Matrix (Thermo Fisher Scientific, Waltham, MA) and grown overnight on DMEM/F12+GlutaMAX (100 µl per well). Then an inhibitor was added, and the plates were incubated for a fixed time interval; the medium was removed, cells lysed, and luciferase activity was measured on a SpectraMax M5e platereader (Molecular Devices, Sunnyvale, CA) with BrightGlo™ reagent (Promega, Madison, WI). The reporter activation was normalized to the background luminescence. The effect of 0.5 mM N-acetylcysteine (NAC) was studied by simultaneous addition of 5 µL of 10 mM stock of NAC in water and 2 µL of 50x stock solutions of a flavonoid in DMSO.

Series [2] relates to HRE-luciferase reporter (HT22 hippocampal cell line). In words: HRE-luc reporter assay. Format: cell-based. Particulars: for fold induction at 10 µM: Mus musculus, HT-22, 3 h, read-out: HRE-luc fold activation; for fold induction at 10 µM / HRE-luc fold activation: at 10 µM. An excerpt: A promoter-reporter construct that contained 68 bp of a known hypoxia and HIF-1 regulated gene, enolase, containing a wild type hypoxia response element (HRE, 5’-RCTGT-3’), is a widely used approach for screening for HIF activators of different mechanism of action. A cell-based assay with HRE-luciferase reporter system is based on transfected immortalized hippocampal cell line (HT22) and allows screening for a broad spectrum of compounds that include: activators of HIF transcription; activators of HIF binding to HRE; and effectors of HIF protein stability (PHD inhibitors, pVHL & proteasome inhibitors). The assay was performed the same way as for HIF ODD-luc reporter except the cells were plated at the density of 10,000 cell per well and incubated overnight.

Series [3] deals with Neh2-luc reporter (SH-SY5Y cell line). Briefly: Neh2-luc reporter assay. The note with it: for Neh2-luc fold activation: at 10 µM, 3 h incubation; for EC50: Neh2-luc. The format is cell-based. As to the method: as §1, §2
A general note: Reporter assays use an easily measured gene product as a stand-in for the process of interest.

The nature of series [4]: Iron binding constant, calcein displacement assay. Particulars: calcein displacement. The format is physicochemical. An excerpt: Calcein displacement assay in the presence of varied concentrations of flavonoids and catechols has been used. Calcein release from its complex with iron was monitored by fluorescence as described in [26].

As to `O=c1c(-c2ccc(O)cc2)coc2cc(O)cc(O)c12` [compound 23, Genistein], the ODD-luc fold activation entry in series [1] (at 10 µM, 3 h incubation) is recorded as “Inactive”. Also, the fold induction at 10 µM in series [2] worked out at 1.5 ± 0.2. In series [3], the Neh2-luc fold activation result was “Inactive”. The “Iron complex Diss. Const” value in series [4] is reported as “Inactive”.
On to `O=c1c(-c2ccc(O)cc2)coc2cc(O)ccc12` [compound 26, Daidzein], for which the ODD-luc fold activation entry was “Inactive” in series [1] (at 10 µM, 3 h incubation) and “did not cause any activation effect” in series [1] (at 10 µM, 3 h incubation, listed as daidzein). Also, the HRE-luc fold activation entry in series [2] is recorded as “Inactive”. Moreover, the Neh2-luc fold activation result in series [3] is “Inactive”; in series [3] (listed as daidzein), “not”. The “Iron complex Diss. Const” value in series [4] is on record as “Inactive”.
Broadly, the EC50 is the concentration giving half of the maximal effect. A higher EC50 goes with a need for much substance. On to `N[C@H](Cc1ccc(O)c(O)c1)C(=O)O` [compound 30, 3,4-Dihydroxy-D-phenylalanine], for which the ODD-luc fold activation entry in series [1] (at 10 µM, 3 h incubation) is “Inactive”. Moreover, in series [2], the HRE-luc fold activation result is recorded as “Inactive”. For the same molecule, in series [3] (Homo sapiens, SH-SY5Y), a half-maximal response (EC50) required 20 µM. Also, in series [3], the Neh2-luc fold activation entry is recorded as “Inactive”. In addition, in series [4], the “Iron complex Diss. Const” value is 2.5 ± 0.3 µM.
For the molecule `O=c1c(-c2ccc(O)cc2)coc2cc(O)cc(O)c12` [compound 24, 5-Hydroxy-daidzein], the HRE-luc fold activation result in series [2] is listed as “Inactive”.
As for `CC(C)Oc1ccc2c(=O)c(-c3ccccc3)coc2c1` [compound 22, Ipriflavone], in series [1] (at 10 µM, 3 h incubation), the ODD-luc fold activation entry was “Inactive”. In addition, the fold induction at 10 µM in series [2] was 2.5 ± 0.3. Also, in series [3], the Neh2-luc fold activation entry is recorded as “Inactive”. For the same molecule, the “Iron complex Diss. Const” value in series [4] is reported as “Inactive”.
As for `COc1ccc2c(=O)c(O)c(-c3ccccc3)oc2c1` [compound 5, 3-Hydroxy-7-methoxy-], the ODD-luc fold activation entry in series [1] (at 10 µM, 3 h incubation) is “Inactive”. For the same molecule, the HRE-luc fold activation result in series [2] was “Inactive”. For the same molecule, in series [3], the Neh2-luc fold activation entry is “Inactive”. For the same molecule, the “Iron complex Diss. Const” value was 5.0 ± 0.5 µM in series [4] and “ca. 5 µM” in series [4] (listed as 3-hydroxy-7-methoxyflavone).
Consider `O=c1c(-c2ccc(O)cc2)coc2c(O)c(O)ccc12` [compound 25, 8-Hydroxy-daidzein], for which the ODD-luc fold activation entry in series [1] (at 10 µM, 3 h incubation) is listed as “Inactive”. Further, the HRE-luc fold activation entry in series [2] is on record as “Inactive”. For the same molecule, the Neh2-luc fold activation entry in series [3] was “Inactive”. In addition, in series [4], the “Iron complex Diss. Const” value is 1.5 ± 0.3 µM.
Turning to `O=C(O)CN(CC(=O)O)Cc1cc2c(cc1O)Oc1cc(O)c(CN(CC(=O)O)CC(=O)O)cc1C21OC(=O)c2ccccc21` [compound 34, Calcein, reference compound], the fold induction at 10 µM was 2 ± 0.25 in series [1] (Homo sapiens, SH-SY5Y, 3 h, at 10 µM, 3 h incubation, read-out: ODD-luc fold activation) and 1.7 ± 0.2 in series [2]. For the same molecule, the Neh2-luc fold activation result in series [3] is reported as “Inactive”. Moreover, the “Iron complex Diss. Const” value in series [4] was 0.05 ± 0.01 µM.
`COc1ccc(-c2oc3ccccc3c(=O)c2O)cc1` [compound 4, 3-Hydroxy-4'-methoxy-]: the “Iron complex Diss. Const” value in series [4] was 4.0 ± 0.4 µM.
For `COc1ccc2c(=O)c(OC)c(-c3ccccc3)oc2c1` [compound 6, 3,7-Dimethoxy-], in series [1] (at 10 µM, 3 h incubation), the ODD-luc fold activation entry is “Inactive”. In addition, the HRE-luc fold activation result in series [2] is “inactive”. Besides, the Neh2-luc fold activation entry in series [3] is “Inactive”.
Regarding `O=C(NO)c1ccc(O)c(O)c1` [compound 33, 3,4-Dihydroxy-benzohydroxamate], the “ODD-luc: concentration above which active” value was “Active above 100 µM” in series [1] and “above 100 µM” in series [1] (listed as Didox). In addition, the “HRE-luc: concentration above which active” value in series [2] is recorded as “Active above 100 µM”. In series [3], this molecule yielded an EC50 of 100 µM. The Neh2-luc fold activation result in series [3] is given as “Inactive”. In series [4], the “Iron complex Diss. Const” value was 1.5 ± 0.3 µM.
With `COc1cc(C)c2c(=O)cc(-c3ccccc3)oc2c1` [compound 21, Methoxyvone], the ODD-luc fold activation entry in series [1] (at 10 µM, 3 h incubation) was “Inactive”. For the same molecule, the fold induction at 10 µM in series [2] amounted to 3.2 ± 0.35. The Neh2-luc fold activation result in series [3] was “Inactive”. In addition, the “Iron complex Diss. Const” value in series [4] is recorded as “Inactive”.
